ChEMBL document CHEMBL1201862, “PubChem BioAssay data set” (2004)
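In this assay, cells in 96-well plates receive the compound at five concentrations for 48 hours. Endpoints are linearly interpolated between the surrounding concentrations. GI50 = concentration required for 50% inhibition of growth.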 Calls of active or inactive are those of the source. Cut-off read from the data, not from the text of the source: active = GI50 up to about 1.1 µM and inactive = higher.

How the values were obtained:
Experiment in all cases: DTP human tumour cell line panel, 48 h
OVCAR-5 = system: OVCAR-5
SK-MEL-28 = system: SK-MEL-28
NCI-H522 = system: NCI-H522
NCI-H226 = system: NCI-H226
NCI-H460 = system: NCI-H460
HL-60 = system: HL-60
HCT-15 = system: HCT-15
MOLT-4 = system: MOLT-4
LOX IMVI = system: LOX IMVI
RPMI-8226 = system: RPMI-8226
OVCAR-4 = system: OVCAR-4
U-251 = system: U-251
SF-539 = system: SF-539
K562 = system: K562
SR = system: SR
SN12C = system: SN12C

| SMILES | GI50 (OVCAR-5) | GI50 (SK-MEL-28) | GI50 (NCI-H522) | GI50 (NCI-H226) | GI50 (NCI-H460) | GI50 (HL-60) | GI50 (HCT-15) [µM] | GI50 (MOLT-4) | GI50 (LOX IMVI) | GI50 (RPMI-8226) | GI50 (OVCAR-4) | GI50 (U-251) | GI50 (SF-539) | GI50 (K562) | GI50 (SR) | GI50 (SN12C) |
| --- | --- | --- | --- | --- | --- | --- | --- | --- | --- | --- | --- | --- | --- | --- | --- | --- |
| CC(=O)C1=C(O)C2C3c4c[nH]c5cccc(c45)CC3C(C)(C)N2C1=O (stereo not given) | 16.6 µM (inactive) | 21.6 µM (inactive) | 11.9 µM (inactive) | 17.3 µM (inactive) | 10.8 µM (inactive) | 3.05 µM (inactive) | 34.6 | 15.6 µM (inactive) | 16.2 µM (inactive) | 4.85 µM (inactive) | > 100 µM (inactive) | 17.1 µM (inactive) | 15.6 µM (inactive) | 45.7 µM (inactive) | – | – |
| Oc1c(C(Nc2cccc3cccnc23)c2ccccc2)ccc2cccnc12 (stereo not given) | 12.9 µM (inactive) | – | 16.8 µM (inactive) | 1.73 µM (inactive) | 3.33 µM (inactive) | 2.2 µM (inactive) | – | 1.9 µM (inactive) | 3.94 µM (inactive) | 3.88 µM (inactive) | 17.5 µM (inactive) | – | 3.65 µM (inactive) | 3.32 µM (inactive) | 2.61 µM (inactive) | 9.48 µM (inactive) |
| C[N+](C)(C)CC1CCCCC1=O (stereo not given) | – | 17.3 µM (inactive) | 19.1 µM (inactive) | > 100 µM (inactive) | 55.3 µM (inactive) | 13.9 µM (inactive) | 14.1 | 12.4 µM (inactive) | 14 µM (inactive) | 9.06 µM (inactive) | – | > 100 µM (inactive) | > 100 µM (inactive) | 8.63 µM (inactive) | – | > 100 µM (inactive) |
| c1ccc(OC2=NC3=S(S2)SC(Oc2ccccc2)=N3)cc1 | 20.5 µM (inactive) | – | 16.4 µM (inactive) | 24.3 µM (inactive) | 30.2 µM (inactive) | 16.8 µM (inactive) | 18.9 | 9.98 µM (inactive) | 19.6 µM (inactive) | 4.83 µM (inactive) | – | 11.2 µM (inactive) | 22.3 µM (inactive) | 16.5 µM (inactive) | – | 20.6 µM (inactive) |
| CC(=O)Nc1ccc(C(=O)NN2C(=O)C(Cl)C2c2ccccc2)cc1 (stereo not given) | > 100 µM (inactive) | > 100 µM (inactive) | > 100 µM (inactive) | > 100 µM (inactive) | > 100 µM (inactive) | > 100 µM (inactive) | – | > 100 µM (inactive) | > 100 µM (inactive) | – | > 100 µM (inactive) | > 100 µM (inactive) | > 100 µM (inactive) | > 100 µM (inactive) | – | > 100 µM (inactive) |
| CC(N)Cc1cccc(C(F)(F)F)c1 (stereo not given) | > 100 µM (inactive) | > 100 µM (inactive) | > 100 µM (inactive) | > 100 µM (inactive) | > 100 µM (inactive) | > 100 µM (inactive) | > 100 | – | > 100 µM (inactive) | > 100 µM (inactive) | > 100 µM (inactive) | > 100 µM (inactive) | > 100 µM (inactive) | > 100 µM (inactive) | > 100 µM (inactive) | > 100 µM (inactive) |
| CN(C)CCNC(=O)c1cccc2c(Nc3ccc(S(N)(=O)=O)cc3)c3ccccc3nc12 | 2.32 µM (inactive) | 1.57 µM (inactive) | 0.252 µM (active) | 1.05 µM (active) | 0.337 µM (active) | 0.228 µM (active) | 1.83 | 0.0632 µM (active) | 0.531 µM (active) | 7.08 µM (inactive) | 1.7 µM (inactive) | 1.02 µM (active) | 0.536 µM (active) | 0.509 µM (active) | 0.0551 µM (active) | 0.656 µM (active) |
| COc1ccc(CNc2nc3ccc(C(F)(F)F)cc3nc2-c2ccccc2)cc1OC | > 100 µM (inactive) | > 100 µM (inactive) | – | > 100 µM (inactive) | 21.2 µM (inactive) | 6.98 µM (inactive) | 25.1 | 6.71 µM (inactive) | 36.8 µM (inactive) | 35.9 µM (inactive) | – | > 100 µM (inactive) | 54.3 µM (inactive) | – | 6.64 µM (inactive) | 46.2 µM (inactive) |
| CSC(C1c2ccccc2N(c2ccc(C)cc2)c2[nH]c(=O)n(C)c(=O)c21)S(=O)(=O)c1ccc(C)cc1 (stereo not given) | > 100 µM (inactive) | > 100 µM (inactive) | 63.8 µM (inactive) | > 100 µM (inactive) | > 100 µM (inactive) | 43.5 µM (inactive) | – | > 100 µM (inactive) | > 100 µM (inactive) | 97.1 µM (inactive) | 97.7 µM (inactive) | > 100 µM (inactive) | > 100 µM (inactive) | > 100 µM (inactive) | – | > 100 µM (inactive) |
| C[C@@]12[Se]c3ccccc3[C@]1(C)[Se]c1ccccc12 | > 100 µM (inactive) | – | 4.05 µM (inactive) | > 100 µM (inactive) | – | 2.74 µM (inactive) | – | – | 5.89 µM (inactive) | 8.85 µM (inactive) | 68.2 µM (inactive) | 54.6 µM (inactive) | – | 4.17 µM (inactive) | – | > 100 µM (inactive) |
| N#CC12C3C4CC5C6C4C1C6C(O)(C53)N2Cc1ccccc1 (stereo not given) | > 100 µM (inactive) | > 100 µM (inactive) | > 100 µM (inactive) | > 100 µM (inactive) | > 100 µM (inactive) | > 100 µM (inactive) | > 100 | > 100 µM (inactive) | > 100 µM (inactive) | > 100 µM (inactive) | > 100 µM (inactive) | > 100 µM (inactive) | > 100 µM (inactive) | > 100 µM (inactive) | > 100 µM (inactive) | > 100 µM (inactive) |
| COc1ccc2c(c1)Cc1c-2[nH]c2cc3c(cc2c1=O)OCO3 | – | 15.8 µM (inactive) | 10.8 µM (inactive) | 29.9 µM (inactive) | 10.3 µM (inactive) | 6.12 µM (inactive) | 9.91 | 8.81 µM (inactive) | 14.5 µM (inactive) | 6.11 µM (inactive) | 25.4 µM (inactive) | 9.89 µM (inactive) | 14.3 µM (inactive) | 7.94 µM (inactive) | – | 30.7 µM (inactive) |
| CCCCCCCCCCCCCCCCCC(CCCCCCCCCCCCCCCCC)OP(=O)(O)O | > 100 µM (inactive) | > 100 µM (inactive) | > 100 µM (inactive) | > 100 µM (inactive) | > 100 µM (inactive) | > 100 µM (inactive) | > 100 | > 100 µM (inactive) | > 100 µM (inactive) | > 100 µM (inactive) | > 100 µM (inactive) | > 100 µM (inactive) | – | > 100 µM (inactive) | 42.9 µM (inactive) | > 100 µM (inactive) |
| O=C(/C=C/c1ccccc1)CC(=O)CCC(=O)Nc1ccc(Cl)cc1 | > 100 µM (inactive) | – | > 100 µM (inactive) | > 100 µM (inactive) | 55.6 µM (inactive) | > 100 µM (inactive) | > 100 | > 100 µM (inactive) | 39.2 µM (inactive) | > 100 µM (inactive) | > 100 µM (inactive) | > 100 µM (inactive) | > 100 µM (inactive) | 5.58 µM (inactive) | – | > 100 µM (inactive) |
| C=CCSC[C@H](NC(=O)COc1ccccc1)C(=O)NC(C(=O)OCc1ccc([N+](=O)[O-])cc1)=C(C)C | – | > 100 µM (inactive) | 26.4 µM (inactive) | 28.6 µM (inactive) | 49.5 µM (inactive) | 23.3 µM (inactive) | 65.5 | 19.8 µM (inactive) | 64.9 µM (inactive) | 39.2 µM (inactive) | 62.2 µM (inactive) | 76.6 µM (inactive) | – | 44.5 µM (inactive) | – | > 100 µM (inactive) |
| O=C1C(Cl)C(c2cccc([N+](=O)[O-])c2)N1n1cnc2ccccc2c1=O (stereo not given) | 58.5 µM (inactive) | > 100 µM (inactive) | 46.3 µM (inactive) | > 100 µM (inactive) | 50.9 µM (inactive) | 57 µM (inactive) | > 100 | 35.1 µM (inactive) | > 100 µM (inactive) | 42.3 µM (inactive) | 54.6 µM (inactive) | > 100 µM (inactive) | – | 49.7 µM (inactive) | 19.1 µM (inactive) | > 100 µM (inactive) |
| Cc1cc(NCCCCCCNc2cc(C)nc3cc(N(C)C)ccc23)c2ccc(N(C)C)cc2n1 | 22.4 µM (inactive) | 29.2 µM (inactive) | 10.6 µM (inactive) | – | 13.3 µM (inactive) | 3.19 µM (inactive) | > 100 | 6.9 µM (inactive) | – | – | 22.6 µM (inactive) | 28.2 µM (inactive) | 59.6 µM (inactive) | 3.97 µM (inactive) | 11 µM (inactive) | 6 µM (inactive) |
| COC(=O)c1cc2ccccc2c2nc3ccccc3c(Cl)c12 | – | > 100 µM (inactive) | 32.9 µM (inactive) | – | – | > 100 µM (inactive) | > 100 | > 100 µM (inactive) | > 100 µM (inactive) | > 100 µM (inactive) | > 100 µM (inactive) | > 100 µM (inactive) | 16.6 µM (inactive) | > 100 µM (inactive) | 51.8 µM (inactive) | > 100 µM (inactive) |
| CN1CCN(c2nc(N)c(Br)c(Cl)n2)CC1 | > 100 µM (inactive) | > 100 µM (inactive) | > 100 µM (inactive) | – | > 100 µM (inactive) | > 100 µM (inactive) | > 100 | > 100 µM (inactive) | > 100 µM (inactive) | > 100 µM (inactive) | > 100 µM (inactive) | – | – | > 100 µM (inactive) | – | > 100 µM (inactive) |
| Cc1ccc2c(c1)c(=O)c1c(NCCN(C)C)ccc3nnn2c31 | 2.59 µM (inactive) | 5.42 µM (inactive) | 4.81 µM (inactive) | 3.02 µM (inactive) | 2.67 µM (inactive) | 2.1 µM (inactive) | 4.18 | 0.605 µM (active) | 1.9 µM (inactive) | 2.36 µM (inactive) | 3.6 µM (inactive) | 4.23 µM (inactive) | 5.26 µM (inactive) | 2.91 µM (inactive) | 1.22 µM (inactive) | 3.45 µM (inactive) |
